pIC50: −log10 of the molar value.
Legend:
[1] = cited from earlier work
[2] = system: bovine serum albumin (BSA); conditions: cited from earlier work
L929 cells = test: Cytotoxicity, MTT assay; assay type: cell-based; conditions: read-out: IC50 (best-fit), 48 h (method b31 says 24 h)
[3] = Thermogravimetric analysis; assay type: physicochemical; conditions: TGA, nitrogen, 10 °C·min^–1
[4] = Critical micelle concentration from conductivity measurements; assay type: physicochemical; conditions: 25 °C
[5] = Solubility in water or ethanol by the conductivity method; conditions: 25 °C
[6] = Pharmacokinetic experiments in mice; assay type: in vivo; conditions: printed as 'higher than that of naproxen'
[7] = cited from earlier work; remark: listed apart in the source

SMILES | increase of permeation of naproxen through the skin [1] | binding affinity for BSA relative to parent naproxen [2] | pIC50 (L929 cells) | beginning weight loss temperature [3] | critical micelle concentration ([4]; ethanol) | critical micelle concentration ([4]; water) | mass of solute per 100 g of solvent ([5]; ethanol) | mass of solute per 100 g of solvent ([5]; water) | cmax [6] | improvement of dissolution rates compared with the original naproxen [7]
CC(C)OC(=O)[C@@H]1CCCN1.COc1ccc2cc([C@H](C)C(=O)O)ccc2c1 [L-proline isopropyl ester naproxen] | almost four times | – | – | – | – | – | – | – | – | –
CC(C)OC(=O)[C@@H](N)C(C)C.COc1ccc2cc([C@H](C)C(=O)O)ccc2c1 [L-valine isopropyl ester naproxen] | – | about 1 order of magnitude lower | – | – | – | – | – | – | – | –
CCCCCCCCCCCCCC[N+](C)(C)Cc1ccccc1.COc1ccc2cc([C@H](C)C(=O)[O-])ccc2c1 [[Ben][Nap], tetradecyldimethylbenzyl ammonium naproxen] | – | – | 3.95 | 147.05 °C | 6.25 × 10^–6 mol·L^–1 | 3.05 × 10^–5 mol·L^–1 | 97.61 g·100 g^–1 | 61.6251 g·100 g^–1 | – | –
COc1ccc2cc(C(C)C(=O)[O-])ccc2c1.C[N+](C)(C)CCO (stereo not shown) [[Ch][Nap], choline naproxen] | – | – | 3.11 | 171.93 °C | 3.48 × 10^–6 mol·L^–1 | 3.75 × 10^–5 mol·L^–1 | 70.23 g·100 g^–1 | 124.51 g·100 g^–1 | 23.051 mg·L^–1 | –
CCCCCCCCn1cc[n+](C)c1.COc1ccc2cc(C(C)C(=O)[O-])ccc2c1 (stereo not shown) [[Omim][Nap], 1-octyl-3-methylimidazole naproxen] | – | – | 3.76 | 218.79 °C | 4.89 × 10^–6 mol·L^–1 | 5.68 × 10^–5 mol·L^–1 | 82.00 g·100 g^–1 | 112.56 g·100 g^–1 | – | –
CCCC[P+](CCCC)(CCCC)CCCC.COc1ccc2cc(C(C)C(=O)[O-])ccc2c1 [[Tbp][Nap], tetrabutyl phosphonium naproxen] | – | – | – | – | – | – | – | – | – | up to 1000 times
